US6541502B1, “2-(aminomethyl)-tetrahydro-9-oxa-1,3-diaza-cyclopenta[a]-naphthalenyl derivatives with antipsychotic activity” (Wyeth, priority 2001, dated 2003)
Structures can show the parent of a compound that is named as a salt.

Experiments:
dopamine D2 receptor = assay: [3H]-spiperidone binding, dopamine D2 receptor (D2 Spiper); conditions: ratio of D2 Spiper IC50 to D2 Quin. IC50 (LowAg/HighAg)
Experimental: High affinity for the dopamine D2 receptor was established by the standard experimental test procedure of Fields, et al., Brain Res., 136, 5789 (1977) and Yamamura et al., ed., Neurotransmitter Receptor Binding, Chapter 9, page 171, Raven Press, N.Y. (1978) wherein homogenized limbic brain tissue is incubated with [^3H]-spiperidone at various concentrations of test compound, filtered washed, and shaken with Hydrofluor scintillation cocktail (National Diagnostics) and counted in a Packard 460 CD scintillation counter.

dopamine autoreceptor = target: T1, dopamine autoreceptor (Rattus norvegicus, UniProt P61169); assay: [3H]-quinpirole binding, dopamine autoreceptor affinity (D2 Quin.); conditions: homogenized rat striatal brain tissue
T1 construct: homogenized rat striatal brain tissue; from tissue; host or cells: rat striatal brain tissue homogenate
Experimental: Affinity for the dopamine autoreceptor was established by a modification of the standard experimental test procedure of Seemen and Schaus, European Journal of Pharmacology 203: 105-109, 1991, wherein homogenized rat striatal brain tissue is incubated with [^3H]-quinpirole (Quin.) at various concentrations of test compound, filtered, washed and counted in a Betaplate scintillation counter.

T1 sequence (P61169 whole entry): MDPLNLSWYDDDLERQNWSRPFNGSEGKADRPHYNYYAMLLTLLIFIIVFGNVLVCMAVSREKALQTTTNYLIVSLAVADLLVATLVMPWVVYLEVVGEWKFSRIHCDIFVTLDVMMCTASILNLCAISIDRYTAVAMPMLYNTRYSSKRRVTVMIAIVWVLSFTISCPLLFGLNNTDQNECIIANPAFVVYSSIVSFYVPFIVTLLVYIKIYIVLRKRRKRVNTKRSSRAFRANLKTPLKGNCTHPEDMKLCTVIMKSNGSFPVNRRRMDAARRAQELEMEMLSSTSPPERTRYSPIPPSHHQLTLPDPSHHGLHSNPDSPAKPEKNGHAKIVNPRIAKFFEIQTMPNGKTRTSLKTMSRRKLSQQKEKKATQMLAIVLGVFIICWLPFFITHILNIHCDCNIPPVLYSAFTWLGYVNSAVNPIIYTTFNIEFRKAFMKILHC

Row | SMILES | melting point | Ratio (dopamine D2 receptor) | IC50 (dopamine autoreceptor)
1 | FC(F)(F)c1nc2ccc3c(c2[nH]1)OC(CNCc1ccccc1)CC3 (stereo not drawn) (as salt: oxalate) [Example 1, Benzyl-(2-trifluoromethyl-1,6,7,8-tetrahydro-9-oxa-1,3-diaza-cyclopenta[a]naphthalen-8-ylmethyl)-amine] | 244 °C | – | –
2 | FC(F)(F)c1nc2ccc3c(c2[nH]1)OC(CNCc1ccccc1)CC3 (stereo not drawn) [Example 1, Benzyl-(2-trifluoromethyl-1,6,7,8-tetrahydro-9-oxa-1,3-diaza-cyclopenta[a]naphthalen-8-ylmethyl)-amine] | – | 75 | 11.5 nM
